Results: US7037502B2, “Peptide with the amino acid sequence of KVLDGQDP having anti-inflammatory properties” (priority 2001, dated 2006)
“Also recorded” adds a separate entry of the source. Marks after values point to notes of the source that are not given here.

What was measured:
PLA2 activated by TGase = target: T1, PLA2 activated by TGase (Cavia cutleri, UniProt P08587); assay: Inhibitory effect of synthetic peptides on PLA2 activated by TGase in vitro; format: biochemical, Bovine; conditions: peptides 1×10^−8 M, preincubated with 0.001 Unit TGase 15 min at 37° C.
T1 construct: pre-incubated with 0.001 Unit TGase (Guinea pig liver, Sigma); purchased Sigma
T1 sequence (P08587 2-690 limits assumed): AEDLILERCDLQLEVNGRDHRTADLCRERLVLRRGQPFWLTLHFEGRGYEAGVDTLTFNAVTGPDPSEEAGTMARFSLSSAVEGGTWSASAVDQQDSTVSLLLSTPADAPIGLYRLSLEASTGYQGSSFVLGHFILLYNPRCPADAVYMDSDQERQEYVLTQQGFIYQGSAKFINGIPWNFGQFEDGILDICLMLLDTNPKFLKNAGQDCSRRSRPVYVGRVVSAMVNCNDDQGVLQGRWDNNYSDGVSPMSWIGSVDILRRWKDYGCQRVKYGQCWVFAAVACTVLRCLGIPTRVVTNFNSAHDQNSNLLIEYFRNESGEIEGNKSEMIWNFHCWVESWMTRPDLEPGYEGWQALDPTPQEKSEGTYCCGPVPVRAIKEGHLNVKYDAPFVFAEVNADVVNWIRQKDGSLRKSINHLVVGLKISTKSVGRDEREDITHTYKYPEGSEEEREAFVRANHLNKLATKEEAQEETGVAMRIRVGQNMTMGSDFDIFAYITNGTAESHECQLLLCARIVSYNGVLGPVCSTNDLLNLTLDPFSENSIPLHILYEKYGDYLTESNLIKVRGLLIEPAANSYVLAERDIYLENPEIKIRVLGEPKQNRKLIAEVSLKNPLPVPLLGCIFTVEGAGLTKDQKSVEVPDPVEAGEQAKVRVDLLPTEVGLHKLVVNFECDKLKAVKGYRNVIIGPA
Protocol: A series of synthetic peptides (1×10^−8 M) were pre-incubated with 0.001 Unit TGase (Guinea pig liver, Sigma) in […] of assay buffer (75 mM Tris-Cl, pH 9.0, 5 mM CaCl2, 1 mg/ml fatty acid free bovine serum albumin) for 15 min at 37° C. We employed a negative control as assay buffer without TGase, and a positive control as TGase without peptides. After pre-incubation, […] of 1-acyl-2-[1-^14C] arachidonic acid-glycerophospho -ethanolamine (about 2×10^5 dpm) was added in pre-incubated mixture, and incubated for 1 hr at 37° C. The reaction was terminated by adding 0.75 ml of Dole's reagent, and followed the same procedure described as above.
For inhibitory test of the peptides given, each value is the mean of data from three separate experiments (S.D.<10%). The increased PLA2 activity by TGase was determined as 100% that was 11.22 pmole arachidonyl/hr. % Inhibition was shown in FIG. 3.

[1] = tested on: eosinophil infiltration of conjunctiva; assay: Allergic conjunctivitis to ragweed in guinea pig: histology, eosinophil count in conjunctiva; format: in vivo, Hartley female guinea pig; conditions: for Anti-inflammatory activity, overall conclusion in words: allergic conjunctivitis model in guinea pig, summary of Example 2; for Statistical evaluation of eosinophil count (Mann-Whitney test), P compared to Dexamethasone / Statistical evaluation of eosinophil count (Mann-Whitney test), P compared to Livostine / Statistical evaluation of eosinophil count (Mann-Whitney test), P compared to No treatment group: eosinophils in three fields of conjunctiva (×400), 12 eyes per group, eye drops
Protocol: The peptides of the present invention were analyzed in experimental model of allergic conjunctivitis to ragweed (giant ragweed; Ambrosia trifida) in guinea pig. Hartley strain of guinea pig was selected according to previous reports of conjunctival anaphylaxis (Calonge M., et al., Acta Ophthalmol 68; 470–476, 1990) and females were chosen based on the sex dimorphism of ocular mucosal immunity with the protective role of male hormones (Saruya S., et al., Act Soc Ophthalmol Jap 72; 833–845, 1968). The conjunctival redness and edema are main signs of seasonal allergic conjunctivitis and eosionphil infiltration is the hallmark of the conjunctival histology in patients with allergic conjunctivitis (Abelson M B., et al., Arch Ophthalmol. 101; 555–556, 1983; Butrus S I., et al., Int. Ophthalmol. Clin. 28; 324–328, 1988)
86 Hartley female guinea pigs, 200–250 g were housed in the animal facilities of the Asan Institute for Life Sciences (Korea), given guinea pig chow and water ad libitum, and cared for in accordance with the Declaration of Helsinki and the National Institute of Health Guide to the Care and Use of the Laboratory Animals (Korea).
On day 15, immunized guinea pigs were divided 14 groups, 6 for each group. 11 anti-inflammatory peptides including new recombinants, dexamethasone eye drop (Maxidex, 0.1% dexamethasone, Alcon) and anti-histamine eye drop (Livostin, levocabastine, Janssen) were used for 13 groups, and no treatment for one group. Normal controls were employed as 6 non-immunized and non-treated guinea pigs. […] All the procedures were followed experimental model of allergic conjunctivitis described by Merayo-Lloves et al (Experimental model of allergic conjunctivitis to ragweed in guinea pig. Curr. Eye Res. 14; 487–494, 1995).
Anti-inflammatory peptides were resolved in sterile saline (100 μmol/40 μl concentration). All peptides and dexamethasone eye solutions were challenged 3 hour prior to the last pollen application on day 15, 10 minutes after pollen application, and 4 times thereafter at the 3 hour interval.
The orbits were excentrated after the animals were killed with CO2 asphyxia, and specimens were prepared for light microscopic examination. Sectioned specimens were stained with hematoxylin-eosin.
Eosinophils in the standardized fields of conjunctival epithelium, the immediate subepithelial, and the stroma were counted in three non-consecutive fields (magnification ×400) for each treatment in each experiment (12 eyes in each group).

Sequence | PLA2 activity activated by TGase (FIG. 3), result in words (PLA2 activated by TGase) | Anti-inflammatory activity, overall conclusion in words ([1]; listed as SEQ ID NO:2) | Statistical evaluation of eosinophil count (Mann-Whitney test), P compared to Dexamethasone [1] | Statistical evaluation of eosinophil count (Mann-Whitney test), P compared to Livostine [1] | Statistical evaluation of eosinophil count (Mann-Whitney test), P compared to No treatment group [1] | Histological signs (eosinophil infiltration), result in words ([1]; n=12, P<0.01, SD<10%, Mann-Whitney test, listed as SEQ ID NO:2) | Anti-inflammatory activity, overall conclusion in words [1]
KVLDGQDP [Peptide R2, synthetic peptide of the invention] | significantly reduced | excellent anti-inflammatory activity in comparison with other known peptide sequences; also recorded: much higher activity than the steroidal anti-inflammatory dexamethasone | 0.001* | 0.002* | 0.000 | statistically significant difference from other groups; also recorded: the most effective | 
KVLDPVKG [Peptide R1, synthetic peptide of the invention] | significantly reduced |  | 0.001 | 0.002 | 0.002 |  | excellent anti-inflammatory activity in comparison with other known peptide sequences
